The ED50 is the midpoint of the dose-response relation.

Counter-ions that a name gives are not always drawn.

The first experiment has as its system acetic acid-induced writhing in ddy mice. Put plainly: animal or person. In kind it is in vivo, 5 week old ddy mice. The conditions noted are these: Mus musculus, sc, s.c. 15 minutes before acetic acid, read-out: ED50. As for the experimental part: 5 week old ddy mice were used in this test. After intraperitoneal administration of 0.1 ml of 0.6% aqueous acetic acid per 10 g of body weight, the number of writhing reactions that occurred in 10 minutes starting 10 minutes after administration was evaluated for the indicator. The test drug was administered subcutaneously into the backs of the animals 15 minutes before administration of acetic acid.
Consider `CN(C(=O)c1ccc(Cl)c(Cl)c1)[C@H]1CC[C@@]2(O)[C@H]3Cc4ccc(O)c5c4[C@@]2(CCN3CC2CC2)[C@H]1O5` [Compound 27, 17-cyclopropylmethyl-3,14β-dihydroxy-4,5α-epoxy-6α-(N-methyl-3,4-dichlorobenzamido)morphinan.cndot.hydrochloride], for which the ED50 turned out to be 0.046 mg/kg.
In the case of `CN(C(=O)Cc1ccc(Br)cc1)[C@H]1CC[C@@]2(O)[C@H]3Cc4ccc(O)c5c4[C@@]2(CCN3CC2CC2)[C@H]1O5` [Compound 28, 17-cyclopropylmethyl-3,14β-dihydroxy-4,5α-epoxy-6α-(N-methyl-4-bromophenylacetamido)morphinan.cndot.hydrobromide], the ED50 came to 0.071 mg/kg.
For the compound `CN(C(=S)NCc1ccccc1)[C@@H]1CC[C@@]2(O)[C@H]3Cc4ccc(O)c5c4[C@@]2(CCN3CC2CC2)[C@H]1O5` [Compound 134, 17-cyclopropylmethyl-3,14β-dihydroxy-4,5α-epoxy-6β-(N-methyl-N'-benzylthioureido)morphinan.cndot.tartrate], the ED50 was 0.15 mg/kg.
With `CN(C(=O)Cc1ccc(N)cc1)[C@H]1CC[C@@]2(O)[C@H]3Cc4ccc(O)c5c4[C@@]2(CCN3CC2CC2)[C@H]1O5` [Compound 137, 17-cyclopropylmethyl-3,14β-dihydroxy-4,5α-epoxy-6α-(N-methyl-4-aminophenylacetamido)morphinanan.cndot.1.6 hydrochloride], the ED50 is 0.17 mg/kg.
Regarding `CN(C(=O)Cc1cccc(N)c1)[C@H]1CC[C@@]2(O)[C@H]3Cc4ccc(O)c5c4[C@@]2(CCN3CC2CC2)[C@H]1O5` [Compound 138, 17-Cyclopropylmethyl-3,14β-dihydroxy-4,5α-epoxy-6α-(N-methyl-3-aminophenylacetamido)morphinan.cndot.1.1 tartrate], the ED50 was 0.014 mg/kg.
Take `CC(=O)Oc1ccc2c3c1O[C@H]1[C@@H](N(C)C(=O)Cc4ccc(Cl)c(Cl)c4)CC[C@@]4(O)[C@@H](C2)N(CC2CC2)CC[C@]314` [Compound 139, 17-Cyclopropylmethyl-3-acetoxy-4,5α-epoxy-14β-hydroxy-6α-(N-methyl-3,4-dichlorophenylacetamido)morphinan.cndot.hydrochloride]: the ED50 came out at 0.04 mg/kg.
For `COc1ccc2c3c1O[C@H]1[C@@H](N(C)C(=O)Cc4ccc(Cl)c(Cl)c4)CC[C@@]4(O)[C@@H](C2)N(CC2CC2)CC[C@]314` [Compound 142, 17-cyclopropylmethyl-4,5α-epoxy-14β-hydroxy-3-methoxy-6α-(N-methyl-3,4-dichlorophenylacetamido)morphinan.cndot.tartrate], the ED50 worked out at 0.78 mg/kg.
Same read-out and setting: to `CC(=O)O[C@@]12CC[C@@H](N(C)C(=O)/C=C/c3ccccc3)[C@@H]3Oc4c(O)ccc5c4[C@@]31CCN(CC1CC1)[C@@H]2C5` [Compound 144, 17-Cyclopropylmethyl-3-hydroxy-14β-acetoxy-4,5α-epoxy-6β-(N-methylcinnamamido)morphinan.cndot.tartrate] belongs 0.024 mg/kg.
The same measure, in the same setting: to `CN(C(=O)Cc1cccc(N=C=S)c1)[C@H]1CC[C@@]2(O)[C@H]3Cc4ccc(O)c5c4[C@@]2(CCN3CC2CC2)[C@H]1O5` [Compound 149, 17-cyclopropylmethyl-3,14β-dihydroxy-4,5α-epoxy-6α-(N-methyl-3-isothiocyanatophenylacetamido)morphinanan.cndot.methanesulfonate] belongs 0.013 mg/kg; to `Cc1ccc(/C=C/C(=O)N(C)[C@@H]2CC[C@@]3(O)[C@H]4Cc5ccc(O)c6c5[C@@]3(CCN4CC3CC3)[C@H]2O6)cc1` [Compound 155, 17-cyclopropylmethyl-3,14β-dihydroxy-4,5α-epoxy-6β-(N-methyl-4-methylcinnamamido)morphinan hydrochloride], 0.012 mg/kg.
On to `C/C(=C\C(=O)N(C)[C@@H]1CC[C@@]2(O)[C@H]3Cc4ccc(O)c5c4[C@@]2(CCN3CC2CC2)[C@H]1O5)c1ccccc1` [Compound 162, 17-cyclopropylmethyl-3,14β-dihydroxy-4,5α-epoxy-6β-(N-methyl-γ-methylcinnamamido)morphinan tartrate], for which the ED50 was determined as 0.018 mg/kg.
Still for that read-out and setting: to `CN(C(=O)C#Cc1ccco1)[C@@H]1CC[C@@]2(O)[C@H]3Cc4ccc(O)c5c4[C@@]2(CCN3CC2CC2)[C@H]1O5.Cl` [Compound 175, 17-cyclopropylmethyl-3,14β-dihydroxy-4,5α-epoxy-6β-[N-methyl-3-(2-furyl)propiolamido]morphinan hydrochloride] belongs 0.018 mg/kg; to `COc1ccc(C#CC(=O)N(C)[C@@H]2CC[C@@]3(O)[C@H]4Cc5ccc(O)c6c5[C@@]3(CCN4CC3CC3)[C@H]2O6)cc1.Cl` [Compound 176, 17-cyclopropylmethyl-3,14β-dihydroxy-4,5α-epoxy-6β-[N-methyl-3-(4-methoxyphenyl)propiolamido]morphinan hydrochloride], 0.11 mg/kg; to `CN(C(=O)C#Cc1ccoc1)[C@@H]1CC[C@@]2(O)[C@H]3Cc4ccc(O)c5c4[C@@]2(CCN3CC2CC2)[C@H]1O5.O=C(O)C(O)C(O)C(=O)O` [Compound 177, 17-cyclopropylmethyl-3,14β-dihydroxy-4,5α-epoxy-6β-[N-methyl-(3-furyl)propiolamido]morphinan tartrate], 0.0096 mg/kg.
On to `CN(C(=O)/C=C/c1ccc(Cl)c(Cl)c1)[C@@H]1CC[C@@]2(O)[C@H]3Cc4ccc(O)c5c4[C@@]2(CCN3CC2CC2)[C@H]1O5` [Compound 179, 17-cyclopropylmethyl-3,14β-dihydroxy-4,5α-epoxy-6β-(N-methyl-3,4-dichlorocinnamamido)morphinan hydrochloride], for which the ED50 is 0.0028 mg/kg.
Consider `Cc1ccc(C#CC(=O)N(C)[C@H]2CC[C@@]3(O)[C@H]4Cc5ccc(O)c6c5[C@@]3(CCN4CC3CC3)[C@H]2O6)cc1.Cl` [Compound 183, 17-cyclopropylmethyl-3,14β-dihydroxy-4,5α-epoxy-6α-[N-methyl-3-(4-methylphenyl)propiolamido]morphinan hydrochloride], for which the ED50 was 0.013 mg/kg.
Consider `CN(C(=O)C#Cc1ccco1)[C@H]1CC[C@@]2(O)[C@H]3Cc4ccc(O)c5c4[C@@]2(CCN3CC2CC2)[C@H]1O5.O=C(O)C(O)C(O)C(=O)O` [Compound 186, 17-cyclopropylmethyl-3,14β-dihydroxy-4,5α-epoxy-6α-[N-methyl-3-(2-furyl)propiolamido]morphinan tartrate], for which the ED50 worked out at 0.0061 mg/kg.
Same read-out and setting: to `COc1ccc(C#CC(=O)N(C)[C@H]2CC[C@@]3(O)[C@H]4Cc5ccc(O)c6c5[C@@]3(CCN4CC3CC3)[C@H]2O6)cc1.O=C(O)C(O)C(O)C(=O)O` [Compound 187, 17-cyclopropylmethyl-3,14β-dihydroxy-4,5α-epoxy-6α-[N-methyl-3-(4-methoxyphenyl)propiolamido]morphinan tartrate] belongs 0.026 mg/kg; to `CN(C(=O)C#Cc1ccoc1)[C@H]1CC[C@@]2(O)[C@H]3Cc4ccc(O)c5c4[C@@]2(CCN3CC2CC2)[C@H]1O5.O=C(O)C(O)C(O)C(=O)O` [Compound 188, 17-cyclopropylmethyl-3,14β-dihydroxy-4,5α-epoxy-6α-[N-methyl-(3-furyl)propiolamido]morphinan tartrate], 0.002 mg/kg; to `CN(C(=O)COc1c(Cl)cc(Cl)cc1Cl)[C@@H]1CC[C@@]2(O)[C@H]3Cc4ccc(O)c5c4[C@@]2(CCN3CC2CC2)[C@H]1O5.Cl` [Compound 199, 17-cyclopropylmethyl-3,14β-dihydroxy-4,5α-epoxy-6β-(N-methyl-2,4,6-trichlorophenoxyacetamido)morphinan hydrochloride], 0.017 mg/kg.
Same read-out and setting: to `CN(C(=O)CCCCCc1ccccc1)[C@@H]1CC[C@@]2(O)[C@H]3Cc4ccc(O)c5c4[C@@]2(CCN3CC2CC2)[C@H]1O5` [Compound 202, 17-cyclopropylmethyl-3,14β-dihydroxy-4,5α-epoxy-6β-(N-methyl-6-phenylhexanoamido)morphinan hydrochloride] belongs 0.083 mg/kg; to `CN(C(=O)CCCCc1ccccc1)[C@@H]1CC[C@@]2(O)[C@H]3Cc4ccc(O)c5c4[C@@]2(CCN3CC2CC2)[C@H]1O5` [Compound 203, 17-cyclopropylmethyl-3,14β-dihydroxy-4,5α-epoxy-6β-(N-methyl-5-phenylpentanoamido)morphinan hydrochloride], 0.38 mg/kg.
Same read-out and setting: to `CN(C(=O)/C=C/c1ccoc1)[C@@H]1CC[C@@]2(O)[C@H]3Cc4cccc5c4[C@@]2(CCN3CC2CC2)[C@H]1O5` [Compound 204, 17-cyclopropylmethyl-4,5α-epoxy-14-hydroxy-6β-[N-methyl-trans-3-(3-furan)acrylamido]morphinan hydrochloride] belongs 0.013 mg/kg; to `COc1ccc2c3c1O[C@H]1[C@H](N(C)C(=O)/C=C/c4ccoc4)CC[C@@]4(O)[C@@H](C2)N(CC2CC2)CC[C@]314` [Compound 217, 17-cyclopropylmethyl-4,5α-epoxy-14β-hydroxy-3-methoxy-6β-[N-methyl-trans-3-(3-furan)acrylamido]morphinan hydrochloride], 0.018 mg/kg.

The experiment is the same for the next values; noted with them: s.c. 15 minutes before acetic acid.
`Cc1ccc(C#CC(=O)N(C)[C@@H]2CC[C@@]3(O)[C@H]4Cc5ccc(O)c6c5[C@@]3(CCN4CC3CC3)[C@H]2O6)cc1.Cl` [Compound 171, 17-cyclopropylmethyl-3,14β-dihydroxy-4,5α-epoxy-6β-[N-methyl-3-(4-methylphenyl)propiolamido]morphinan hydrochloride] displayed an ED50 of 0.038 mg/kg.

System in another experiment: not listed separately
The experiment in a line: Diuretic action (urine output for 5 hours after physiological saline loading in rats). The experiment is classed as in vivo, male Wistar rats. Particulars: Rattus norvegicus, sc, dose giving urine output of 200 (non-dosed group = 100), 5 hours after saline 20 ml/kg p.o. As for the experimental part: 7-8 week old male Wistar rats were used in this test after prohibiting from drinking water for 1 hour before the start of testing. After discharging any urine accumulated in the bladder by gently stimulating the lower abdomens of the animals, the drug was administered subcutaneously. After 30 minutes, the animals were then forcibly given 20 ml/kg of physiological saline orally. The animals were placed in metabolic cages immediately after administration of the drug (2 animals/cage) and urine output for 5 hours after loading with physiological saline was measured. Drug efficacy was expressed in the form of those doses resulting in urine outputs of 200 and 500, respectively, when the urine output of a non-dosed group was taken to be 100. Those doses were expressed as the ED200 and ED500 values, respectively.
In turn, `CN(C(=O)c1ccc(Cl)c(Cl)c1)[C@H]1CC[C@@]2(O)[C@H]3Cc4ccc(O)c5c4[C@@]2(CCN3CC2CC2)[C@H]1O5` [Compound 27, 17-cyclopropylmethyl-3,14β-dihydroxy-4,5α-epoxy-6α-(N-methyl-3,4-dichlorobenzamido)morphinan.cndot.hydrochloride] came in with an ED (200% urine output) of 0.0248 mg/kg.
Compound `CN(C(=O)Cc1ccc(Br)cc1)[C@H]1CC[C@@]2(O)[C@H]3Cc4ccc(O)c5c4[C@@]2(CCN3CC2CC2)[C@H]1O5` [Compound 28, 17-cyclopropylmethyl-3,14β-dihydroxy-4,5α-epoxy-6α-(N-methyl-4-bromophenylacetamido)morphinan.cndot.hydrobromide] showed an ED (200% urine output) of 0.02 mg/kg.

Staying with this experiment, now noted: Rattus norvegicus, sc, dose giving urine output of 500 (non-dosed group = 100), 5 hours after saline 20 ml/kg p.o.
With `CN(C(=O)c1ccc(Cl)c(Cl)c1)[C@H]1CC[C@@]2(O)[C@H]3Cc4ccc(O)c5c4[C@@]2(CCN3CC2CC2)[C@H]1O5` [Compound 27, 17-cyclopropylmethyl-3,14β-dihydroxy-4,5α-epoxy-6α-(N-methyl-3,4-dichlorobenzamido)morphinan.cndot.hydrochloride], the ED (500% urine output) is 2.08 mg/kg.
On the same count and under the same terms, to `CN(C(=O)Cc1ccc(Br)cc1)[C@H]1CC[C@@]2(O)[C@H]3Cc4ccc(O)c5c4[C@@]2(CCN3CC2CC2)[C@H]1O5` [Compound 28, 17-cyclopropylmethyl-3,14β-dihydroxy-4,5α-epoxy-6α-(N-methyl-4-bromophenylacetamido)morphinan.cndot.hydrobromide] belongs 3.8 mg/kg.
